# Reference: patent US5747447A, “Stable polypeptide composition” (COR Therapeutics, priority 1995, dated 1998)
# Where a SMILES comes first, the peptide text is derived from it. Bridges are numbered along the chain shown (N, C = ends). Where no end group is shown, it is not given here. [ ]: non-standard residue; d: D form. Phe(4-Cl) = N[C@@H](Cc1ccc(Cl)cc1)C(=O)O; 2Nal = N[C@@H](Cc1ccc2ccccc2c1)C(=O)O; hArg = N=C(N)NCCCC[C@H](N)C(=O)O; NMeL = CN[C@@H](CC(C)C)C(=O)O; Pen = CC(C)(S)[C@H](N)C(=O)O; NMeS = CN[C@@H](CO)C(=O)O; NMeA = CN[C@@H](C)C(=O)O; Aib = CC(C)(N)C(=O)O; Mpa = O=C(O)CCS; Sar = CNCC(=O)O
# Molecular target: ADP-induced human platelet aggregation (Homo sapiens, UniProt P05106+P08514)
# Assay: standard aggregation inhibition assay (ADP-induced human platelet aggregation)
# Type: cell-based
# Settings: ADP-induced human platelet aggregation; read-out: Appr, IC50
# Text: 2. Standard assays directly applied to platelet aggregation, such as those described by Gann, Z.-R., et al., J Biol Chem (1988) 263:19827-19832; Huang, T. F., et al., J Biol Chem (1987) 262:16157-16163; Biochemistry (1989) 28:661-666, cited above and incorporated herein by reference;
row,Compound,IC50
1,Ac-CKGDWPC-NH2 (cysteine pairing not given here) [Analog #47],2500 nM
2,Acetyl-C-K-G-D-C-NH2 [Analog #8],200000 nM
3,CHGDWPC-NH2 (cysteine pairing not given here) [Analog #46],200000 nM
4,CKADWPC-NH2 (cysteine pairing not given here) [Analog #37],100000 nM
5,CKGDFPC-NH2 (cysteine pairing not given here) [Analog #13],20000 nM
6,CKGDIPC-NH2 (cysteine pairing not given here) [Analog #41],100000 nM
7,CKGDWGC-NH2 (cysteine pairing not given here) [Analog #34],100000 nM
8,CKGDWPC-NH2 (cysteine pairing not given here) [Analog #10],5000 nM
9,CKGDYPC-NH2 (cysteine pairing not given here) [Analog #12],12000 nM
10,CKGD[Phe(4-Cl)]P-NH2 [Analog #42],20000 nM
11,CKGEWPC-NH2 (cysteine pairing not given here) [Analog #35],> 300000 nM
12,Mpr-Har-Sar-D-W-P-C-NH2 [Analog #68],3000 nM
13,[Mpa]KGD[2Nal]P[Pen]-NH2 (cysteine pairing not given here) [Analog #57],1000 nM

# Same assay, conditions: PAI activity, Example 15; read-out: Appr.IC20
row,Compound,IC20
1,"CC(C)C[C@H]1C(=O)N[C@@H](CCCCNC(=N)N)C(=O)NCC(=O)N[C@@H](CC(=O)O)C(=O)N[C@@H](Cc2c[nH]c3ccccc23)C(=O)N2CCC[C@H]2C(=O)N[C@H](C(N)=O)CSSCCC(=O)N1C [PAI 88, Mpr-(N-Me-Leu)-Har-G-D-W-P-C-NH2] ([Mpa][NMeL][hArg]GDWPC-NH2; disulfide 1-8)",840 nM
2,"C[C@H]1C(=O)N[C@@H](CCCCNC(=N)N)C(=O)NCC(=O)N[C@@H](CC(=O)O)C(=O)N[C@@H](Cc2c[nH]c3ccccc23)C(=O)N2CCC[C@H]2C(=O)N[C@H](C(N)=O)CSSCCC(=O)N1C [PAI 89, Mpr-(N-Me-Ala)-Har-G-D-W-P-C-NH2] ([Mpa][NMeA][hArg]GDWPC-NH2; disulfide 1-8)",620 nM
3,"CN1CC(=O)N[C@@H](CCCCNC(=N)N)C(=O)NCC(=O)N[C@@H](CC(=O)O)C(=O)N[C@@H](Cc2c[nH]c3ccccc23)C(=O)N2CCC[C@H]2C(=O)N[C@H](C(N)=O)CSSCCC1=O [PAI 90, Mpr-Sar-Har-G-D-W-P-C-NH2] ([Mpa][Sar][hArg]GDWPC-NH2; disulfide 1-8)",270 nM
4,"CC(C)[C@@H]1NC(=O)CCSSC[C@@H](C(N)=O)NC(=O)[C@@H]2CCCN2C(=O)[C@H](Cc2c[nH]c3ccccc23)NC(=O)[C@H](CC(=O)O)NC(=O)CNC(=O)[C@H](CCCCNC(=N)N)NC1=O [PAI 91, Mpr-V-Har-G-D-W-P-C-NH2] ([Mpa]V[hArg]GDWPC-NH2; disulfide 1-8)",350 nM
5,"N=C(N)NCCCC[C@@H]1NC(=O)[C@H](CO)NC(=O)CCSSC[C@@H](C(N)=O)NC(=O)[C@@H]2CCCN2C(=O)[C@H](Cc2c[nH]c3ccccc23)NC(=O)[C@H](CC(=O)O)NC(=O)CNC1=O [PAI 92, Mpr-S-Har-G-D-W-P-C-NH2] ([Mpa]S[hArg]GDWPC-NH2; disulfide 1-8)",240 nM
6,"C[C@@H]1NC(=O)[C@@H]2CCCN2C(=O)[C@H](Cc2c[nH]c3ccccc23)NC(=O)[C@H](CC(=O)O)NC(=O)CNC(=O)[C@H](CCCCNC(=N)N)NC(=O)CCSSC[C@@H](C(N)=O)NC1=O [PAI 93, Mpr-Har-G-D-W-P-A-C-NH2] ([Mpa][hArg]GDWPAC-NH2; disulfide 1-8)",3330 nM
7,"C[C@H]1C(=O)N[C@H](C(N)=O)CSSCCC(=O)N[C@@H](CCCCNC(=N)N)C(=O)NCC(=O)N[C@@H](CC(=O)O)C(=O)N[C@@H](Cc2c[nH]c3ccccc23)C(=O)N2CCC[C@H]2C(=O)N1C [PAI 94, Mpr-Har-G-D-W-P-(N-Me-Ala)-C-NH2] ([Mpa][hArg]GDWP[NMeA]C-NH2; disulfide 1-8)",1460 nM
8,"N=C(N)NCCCC[C@@H]1NC(=O)CCSSC[C@@H](C(N)=O)NC(=O)CNC(=O)[C@@H]2CCCN2C(=O)[C@H](Cc2c[nH]c3ccccc23)NC(=O)[C@H](CC(=O)O)NC(=O)CNC1=O [PAI 95, Mpr-Har-G-D-W-P-G-C-NH2] ([Mpa][hArg]GDWPGC-NH2; disulfide 1-8)",8660 nM
9,"C[C@H]1NC(=O)[C@@H]2CCCN2C(=O)[C@H](Cc2c[nH]c3ccccc23)NC(=O)[C@H](CC(=O)O)NC(=O)CNC(=O)[C@H](CCCCNC(=N)N)NC(=O)CCSSC[C@@H](C(N)=O)NC1=O [PAI 96, Mpr-Har-G-D-W-P-A.dagger.-C-NH2] ([Mpa][hArg]GDWP[dA]C-NH2; disulfide 1-8)",230 nM
10,"N=C(N)NCCCC[C@@H]1NC(=O)CCSSC[C@@H](C(N)=O)NC(=O)[C@@H]2CCCN2C(=O)[C@@H]2CCCN2C(=O)[C@H](Cc2c[nH]c3ccccc23)NC(=O)[C@H](CC(=O)O)NC(=O)CNC1=O [PAI 97, Mpr-Har-G-D-W-P-P-C-NH2] ([Mpa][hArg]GDWPPC-NH2; disulfide 1-8)",1400 nM
11,"CN1CC(=O)N[C@H](C(N)=O)CSSCCC(=O)N[C@@H](CCCCNC(=N)N)C(=O)NCC(=O)N[C@@H](CC(=O)O)C(=O)N[C@@H](Cc2c[nH]c3ccccc23)C(=O)N2CCC[C@H]2C1=O [PAI 98, Mpr-Har-G-D-W-P-(Sar)-C-NH2] ([Mpa][hArg]GDWP[Sar]C-NH2; disulfide 1-8)",310 nM
12,"C[C@@H]1NC(=O)CCSSC(C)(C)[C@@H](C(N)=O)NC(=O)[C@@H]2CCCN2C(=O)[C@H](Cc2c[nH]c3ccccc23)NC(=O)[C@H](CC(=O)O)NC(=O)CNC(=O)[C@H](CCCCNC(=N)N)NC1=O [PAI 100, Mpr-A-(Har)-G-D-W-P-Pen-NH2] ([Mpa]A[hArg]GDWP[Pen]-NH2; disulfide 1-8)",370 nM
13,"C[C@@H]1NC(=O)CCSSC(C)(C)[C@@H](C(N)=O)NC(=O)[C@@H]2CCCN2C(=O)[C@H](Cc2c[nH]c3ccccc23)NC(=O)[C@H](CC(=O)O)NC(=O)CNC(=O)[C@H](CCCCN)NC1=O [PAI 101, Mpr-A-K-G-D-W-P-Pen-NH2] ([Mpa]AKGDWP[Pen]-NH2; disulfide 1-8)",4910 nM
14,"CC1(C)SSCCC(=O)N[C@@H](CC(=O)O)C(=O)N[C@@H](CCCCNC(=N)N)C(=O)NCC(=O)N[C@@H](CC(=O)O)C(=O)N[C@@H](Cc2c[nH]c3ccccc23)C(=O)N2CCC[C@H]2C(=O)N[C@@H]1C(N)=O [PAI 102, Mpr-D-(Har)-G-D-W-P-Pen-NH2] ([Mpa]D[hArg]GDWP[Pen]-NH2; disulfide 1-8)",4040 nM
15,Mpr-(N-Me-Ser)-Har-G-D-W-P-C-NH2 ([Mpa][NMeS][hArg]GDWPC-NH2; cysteine pairing not given here) [PAI 85],280 nM
16,Mpr-Har-G-D-W-P-(Aib)-NH2 ([Mpa][hArg]GDWP[Aib]-NH2; SMILES CC(C)(NC(=O)[C@@H]1CCCN1C(=O)[C@H](Cc1c[nH]c2ccccc12)NC(=O)[C@H](CC(=O)O)NC(=O)CNC(=O)[C@H](CCCCNC(=N)N)NC(=O)CCS)C(N)=O) [PAI 99],460 nM
